Structures are written as SMILES.

This is an account of results in US20070043034A1, “Chlorine Ion Uptake Modulators and Uses Thereof” (priority 2005, published 2007).

The subject of assay [1] is spontaneous network activity in hippocampal sections. As to the kind of experiment: Spontaneous network activity in P4-8 hippocampal sections (whole-cell and extracellular field recordings). It counts as cell-based, rat. As for the experimental part:
In another exemplary in vitro method, simultaneous whole-cell voltage-clamp recordings of CA3 pyramidal cells and extracellular field potential recordings in CA3 pyramidal cell layer were performed to analyze the effects of one of the pharmaceutical compositions of the present invention, bumetanide, on spontaneous network activity in the postnatal (P)4-8 hippocampal sections. Spontaneous neuronal network activity is characterized by large polysynaptic currents mediated by activation of GABAA-receptors and synchronous recurrent population bursts, associated with a barrage of high frequency action potentials from multiple cells (FIG. 1C). […] Synchronous network activity reappeared 10-15 min after removal of bumetanide by washing.
In one exemplary method, experimental procedures were carried out on hippocampal slices of postnatal days 5 (P5) to P12 male Wistar rats. Animals were anaesthetized and decapitated and hippocampal slices were prepared by known methods. […]
(§1) From the example outlined above, extracellular field potentials were recorded and microelectrodes known in the art were used for simultaneous recordings of multiple unit activity (e.g. MUA; 500 Hz high-pass filter), population field activity in EEG band (1-100 Hz), and fast ripple oscillations (200-600 Hz).).

The target of assay [2] is T1, NKCCl (Rattus norvegicus, UniProt E9PTX9).
T1 construct: gramicidin perforated patch clamped CA1 pyramidal neuron in an acute hippocampal slice from a P5 rat; from tissue; host or cells: acute hippocampal slices of P3-P6 male Sprague-Dawley rats; CA1 pyramidal neurons
T1 sequence (E9PTX9 1-1203): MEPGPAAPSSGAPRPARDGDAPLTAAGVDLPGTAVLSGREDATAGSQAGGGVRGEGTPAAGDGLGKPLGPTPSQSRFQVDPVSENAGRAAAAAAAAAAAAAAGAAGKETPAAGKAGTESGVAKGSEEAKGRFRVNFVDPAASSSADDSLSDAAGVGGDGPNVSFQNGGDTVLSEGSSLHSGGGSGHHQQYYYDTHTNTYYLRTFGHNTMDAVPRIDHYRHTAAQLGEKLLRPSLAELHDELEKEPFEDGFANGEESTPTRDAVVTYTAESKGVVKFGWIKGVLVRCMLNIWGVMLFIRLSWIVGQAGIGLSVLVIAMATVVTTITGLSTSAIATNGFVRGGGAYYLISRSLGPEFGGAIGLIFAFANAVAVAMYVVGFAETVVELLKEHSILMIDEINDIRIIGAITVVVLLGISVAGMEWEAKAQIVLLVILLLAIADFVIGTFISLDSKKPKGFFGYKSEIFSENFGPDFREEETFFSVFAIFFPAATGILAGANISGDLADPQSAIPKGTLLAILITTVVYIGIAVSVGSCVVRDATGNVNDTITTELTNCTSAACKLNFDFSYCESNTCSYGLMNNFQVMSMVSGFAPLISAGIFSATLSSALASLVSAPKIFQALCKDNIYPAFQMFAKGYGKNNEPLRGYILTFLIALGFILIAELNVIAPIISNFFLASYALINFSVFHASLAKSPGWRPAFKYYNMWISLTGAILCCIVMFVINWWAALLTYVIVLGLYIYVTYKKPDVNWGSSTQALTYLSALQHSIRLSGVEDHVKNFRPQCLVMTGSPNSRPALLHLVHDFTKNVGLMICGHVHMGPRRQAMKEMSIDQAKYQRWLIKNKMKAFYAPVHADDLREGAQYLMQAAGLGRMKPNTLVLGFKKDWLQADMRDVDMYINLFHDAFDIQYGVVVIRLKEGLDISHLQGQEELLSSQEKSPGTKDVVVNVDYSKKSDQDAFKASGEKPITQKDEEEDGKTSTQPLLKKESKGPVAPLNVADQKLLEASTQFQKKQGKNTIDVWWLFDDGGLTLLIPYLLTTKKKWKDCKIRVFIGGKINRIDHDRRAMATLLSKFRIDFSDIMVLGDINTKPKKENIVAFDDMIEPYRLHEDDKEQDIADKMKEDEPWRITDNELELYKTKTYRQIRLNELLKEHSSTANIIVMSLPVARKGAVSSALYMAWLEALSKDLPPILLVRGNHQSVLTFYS
As to the kind of experiment: Gramicidin perforated patch recording of ECl and Cli in CA1 pyramidal cells of acute hippocampal slices. The settings on record: 10 μM bumetanide. It counts as cell-based.

The subject of assay [3] is 8.5 mM potassium-induced epileptiform activity in hippocampal slices. The assay can be described thus: 8.5 mM K+ induced epileptiform activity in hippocampal slices in vitro. It counts as cell-based, rat. The settings on record: for decrease of averaged power of epileptiform activity: bumetanide 10 μM.
Excerpt: In this example, the effects of phenobarbital on recurrent interictal and ictal-like epileptiform activity in the hippocampal slices in vitro from P7-12 rats were studied. Interictal and ictal-like epileptiform activity are typical parameters studied when analyzing seizure activity in control and treated subjects. Phenobarbital exerts its pharmacological effects by allosteric activation of the GABAA receptor, increasing the duration of chloride ion channel opening, without affecting the frequency of opening or channel conductance. Simultaneous multi-site extracellular field potential records were performed in the CA3 pyramidal cell layer. To induce progressive neuronal firing, a bath application of 8.5 mM K+ was applied to the sections that developed to recurrent interictal and ictal-like epileptiform activities (FIG. 2A-2D). […] The power of extracellular field potential during 8.5 mM K+ (potassium) induced epileptiform activity in 0.1-1000 Hz frequency band, that include both gamma and fast ripple oscillations (FIG. 2A-2D).
In one exemplary method, experimental procedures were carried out on hippocampal slices of postnatal days 5 (P5) to P12 male Wistar rats. Animals were anaesthetized and decapitated and hippocampal slices were prepared by known methods. For example, hippocampal transverse slices were cut using Leica VT-100E vibratome (Leica Microsystems Nussloch GmbH, Germany) and kept in oxygenated aCSF at room temperature at least 1 hr before use. Hippocampal slices posterior to the midtemporal (caudal) part of the hippocampus (Paxinos and Watson, 1986) were used in the study.
In one example, electrophysiological recordings are gathered from individual slices and subsequently transferred to a conventional submerged-type chamber and continuously superfused with, for example, oxygenated aCSF. Whole-cell recordings were generated. Patch electrodes were used, made by known methods. For whole-cell recording in voltage-clamp mode pipettes were filled with a buffered solution.
as §1
In one experimental example, bumetanide was tested for suppression of a 8.5 mM potassium-induced epileptiform activity in hippocampal slices from P7-9 and PI0-12 rats. […] Averaged power of epileptiform activity was decreased by 71±2.1% (n=9, p=1.57E-12) in P7-9 rat hippocampal slices and by 41.9±1.5% (n=6, p=2.13E-11) at P10-P12 (FIG. 3C).
In another aspect of this example, pharmaceutical compositions of the present invention may be tested for effects on the GABAA receptor using for example a GABAA-R antagonist before, during or after treatment with the pharmaceutical composition. In one example, GABAA receptor antagonists prevented the effect of bumetanide on power of epileptiform activity in the hippocampal slices from neonatal rats (FIGS. 3B and 3D). […] Here, an inhibition of synchronous network activity by bumetanide treatment in the perinatal hippocampal slices in this in vitro experiment was observed and these affects were partially reversed after treatment with bicuculline.

On to `CCCCNc1cc(C(=O)O)cc(S(N)(=O)=O)c1Oc1ccccc1` [bumetanide, 3-(aminosulfonyl)-5-(butylamino)-4-phenoxybenzoic acid], for which, in assay [1] (after bumetanide 10 uM), the “time until synchronous network activity reappeared after removal by washing” value was 10 to 15 min. The “synchronous bursts of action potentials” value in assay [1] (bath application 10 uM, P4-8 hippocampal sections, n=10) was “rapidly depressed”. Moreover, in assay [2], the holding current result was “no change”. In addition, the ECl in assay [2] (P4-6 CA1 pyramidal cells, n=9, control −67.34±3.78 mV) was −80.14±4.61 mV. For the same compound, in assay [2] (n=9, P=0.0006), the “lowering of Cli” value came to 37±0.05%. The compound also yielded a Cli in assay [2] (n=9, control 12.00±1.47 mM) of 7.62 ± 1.14 mM. Besides, the “decrease of averaged power of epileptiform activity” value in assay [3] (P7-9 rat hippocampal slices, n=9) is 71±2.1%; in assay [3] (P10-P12 rat hippocampal slices, n=6) it was 41.9±1.5%. Besides, the “increase of IED frequency” value in assay [3] (bumetanide 10 μM in the presence of bicuculline 10 μM, P7-9 slices, n=6, p=0.008) is listed as 22.8 ± 6.4%. For the same compound, the “decrease of IED length” value in assay [3] (bumetanide 10 μM in the presence of bicuculline 10 μM, P7-9 slices, p=0.8) amounted to 2.2±8%. Besides, in assay [3] (bumetanide 10 μM in the presence of bicuculline 10 μM, p=0.35), the “averaged power of epileptiform discharges” value is reported as “did not change”. For the same compound, the “effect on epileptiform activity” value in assay [3] (hippocampal slices from P7-9 rats, bath application phenobarbital 100 μM (n=6) or bumetanide 10 μM (n=10)) is “strongly suppressed interictal and ictal-like epileptiform activity”; in assay [3] (hippocampal slices from P10-12 rats, bath application phenobarbital 100 μM (n=7) or bumetanide 10 μM (n=6)) it was “depressed ictal-like epileptiform activity”.
